For orientation: IC50 means the point on the concentration scale where inhibition reaches its midpoint. High values mean a need for much substance, low ones inhibition by little substance.

Experiment [1] has as its target T1, HMG-CoA reductase (Rattus norvegicus, UniProt P51639).
T1 construct: solubilized enzyme preparations from liver microsomes of rats; from tissue; host or cells: rat liver microsomes (solubilized), rats induced with cholestyramine
T1 sequence (P51639 1-887): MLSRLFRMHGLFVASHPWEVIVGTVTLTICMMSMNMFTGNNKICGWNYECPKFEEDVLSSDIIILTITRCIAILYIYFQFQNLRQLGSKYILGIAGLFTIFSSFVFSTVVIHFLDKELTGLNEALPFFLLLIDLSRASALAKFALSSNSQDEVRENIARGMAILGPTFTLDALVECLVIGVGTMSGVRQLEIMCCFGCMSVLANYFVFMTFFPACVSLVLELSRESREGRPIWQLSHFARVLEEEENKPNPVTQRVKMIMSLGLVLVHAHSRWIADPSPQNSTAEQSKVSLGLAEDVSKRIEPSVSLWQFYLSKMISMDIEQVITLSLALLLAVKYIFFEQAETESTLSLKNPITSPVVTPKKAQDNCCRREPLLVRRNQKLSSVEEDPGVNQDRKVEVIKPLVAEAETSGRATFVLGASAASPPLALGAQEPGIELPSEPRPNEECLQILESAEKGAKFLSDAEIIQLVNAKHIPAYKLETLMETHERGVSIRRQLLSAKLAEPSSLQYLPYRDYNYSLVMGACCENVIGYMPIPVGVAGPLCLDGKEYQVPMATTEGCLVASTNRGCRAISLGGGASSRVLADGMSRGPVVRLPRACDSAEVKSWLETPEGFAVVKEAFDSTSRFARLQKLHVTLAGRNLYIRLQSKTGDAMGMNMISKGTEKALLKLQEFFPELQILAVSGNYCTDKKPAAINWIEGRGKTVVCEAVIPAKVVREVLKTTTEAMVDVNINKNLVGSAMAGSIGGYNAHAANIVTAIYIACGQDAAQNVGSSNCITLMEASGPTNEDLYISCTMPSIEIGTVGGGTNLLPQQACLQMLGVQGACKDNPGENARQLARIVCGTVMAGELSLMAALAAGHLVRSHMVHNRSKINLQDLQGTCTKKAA
Kind of experiment: HMG-CoA reductase activity in enzyme preparations (solubilized enzyme from liver microsomes of rats). Format: biochemical. The following applies: (SmR) 14C-HMG-CoA substrate. As to the method:
The HMG-CoA reductase activity was measured on solubilized enzyme preparations from liver microsomes of rats which had been induced with cholestyramine (®Cuemid) after changing the day/night rhythm. (Sm R) ^14 C-HMG-CoA was used as substrate, and the concentration of NADPH was maintained during the incubation by a regenerating system. ^14 C-mevalonate was separated from the substrate and other products (for example ^14 C-HMG) by column elution, with the elution profile of each individual sample being determined. ^3 H-Mevalonate was not always included because the object was to determine relative data on the inhibitory effect. In each test series the enzyme-free control, the enzyme-containing normal mixture (=100%) and those with added product, final concentration 10^-5 to 10^-9 M, were treated together. Each individual value was formed as the mean of 3 parallel samples. The significance of the differences between means for product-free and product-containing samples was assessed by the t test.
Using the method described above, for example, the following values for the inhibition of HMG-CoA reductase were found for the compounds according to the invention [IC50 /mol/liter denotes the molar concentration of the compound per liter required for a 50% inhibition]. […]
(Liver microsomes are a subcellular fraction often used to study metabolism.)

The test system of experiment [2] is cholesterol biosynthesis in HEP-G2 cells. Kind of experiment: Inhibition of cholesterol biosynthesis in HEP-G2 cell cultures. The experiment is classed as cell-based. The following applies: for IC50: Homo sapiens, HepG2, 14C-cholesterol formed from 14C-precursor; for relative activity (IC50 ref./IC50): vs analogous hept-6E-enoic acid derivative. As to the method: Monolayers of HEP-G2 cells in lipoprotein-free nutrient medium were preincubated with the appropriate concentrations of the test substances for a defined time (for example 1 hour) and, after addition of the labeled precursor, for example sodium ^14 C-acetate, the incubation was continued (for example for 3 hours). After addition of an internal standard (^3 H-cholesterol) a portion of the cells was subjected to alkaline hydrolysis. The lipids from the hydrolyzed cells were extracted with chloroform/methanol. This lipid mixture was, after addition of carrier cholesterol, subjected to preparative thin-layer chromatography, the cholesterol band was visualized with iodine vapor and then isolated, and the amount of ^14 C-cholesterol formed from the ^14 C-precursor was determined by scintigraphy. Cell protein was determined in an aliquot of the cells so that it is possible to calculate the amount of ^14 C-cholesterol formed in unit time per mg of cell protein. The inhibitory effect of the particular test product on cholesterol biosynthesis by HEP-G2 cell cultures emerged by comparison of this figure with the amount of ^14 C-cholesterol formed per mg of cell protein and unit time in a culture treated in the same way but free of test substance.
Testing of substances for inhibition of cholesterol biosynthesis in confluent cell cultures (monolayers) of HEP-G2 cells [drawing 17]
Using the method described above, for example the following figures for the inhibition of cholesterol biosynthesis (in HEP-G2 cells) were found for the compounds according to the invention (the IC50 /mol is that concentration of the compound which brings about 50% inhibition of cholesterol biosynthesis). IC50 values were determined for the compounds according to the invention as well as for identically substituted 3,5-dihydroxyhept6E-enoic acid derivatives (IC50 ref.). The quotient IC50 ref./IC50 yielded the relative activity of the compounds according to the invention. […] This corresponds to a relative activity of 1.6 based on the analogous hept-6E-enoic acid derivative.

The compound `CC(C)c1nc(-c2ccccc2)cc(-c2ccc(F)cc2)c1C#C[C@@H](O)C[C@@H](O)CC(=O)O` (relative stereo) [Example 7a, sodium 3RS, 5SR-dihydroxy-7-(4-(4-fluorophenyl)-2-(1-methylethyl)-6-phenylpyridin-3-yl)hept-6-ynoate] showed an IC50 in experiment [1] of 3 nM. This lies in the single-digit nanomolar range. The same measure, in the same setting: then `CC(C)C(C#C[C@@H](O)C[C@@H](O)CC(=O)O)=C(c1ccc(F)cc1)c1ccc(F)cc1` (relative stereo) [Example 7l], with 5.7 nM. Take `CC(C)c1nc(-c2ccccc2)cc(-c2ccc(F)cc2)c1C#C[C@@H]1C[C@@H](O)CC(=O)O1` (relative stereo) [Example 8a, 6RS-2-(4-(4-Fluorophenyl)-2-(1-methylethyl)-6-phenylpyridin-3-yl)ethynyl-4SR-hydroxy-3,4,5,6-tetrahydro-2H-pyran-2-one]: in experiment [2], it took 9 nM to reach half-maximal inhibition (IC50) and the “relative activity (IC50 ref./IC50)” value was 2.67. For `CC(C)c1nc(-c2ccc(F)cc2)nc(-c2ccc(F)cc2)c1C#C[C@@H]1C[C@@H](O)CC(=O)O1` (relative stereo) [Example 8e], in experiment [2], the IC50 was determined as 11 nM and the “relative activity (IC50 ref./IC50)” value was determined as 1.6.
